Measured values reported in EP0019764A1, “Trans-3-(4'-tert.-butyl-cyclohexyl-1')-2-methyl-1-(3'-methylpiperidino, 3',5'-dimethylpiperidino and 2', 6'-dimethylmorpholino) propane, process for their pure preparation, antimycotic agents containing them and their utilisation” (BASF Aktiengesellschaft, priority 1979, dated 1980).
Values after ≈ are worked out from the molar mass of the structure shown. Like-named read-outs stand apart in the source and are kept apart here.

Legend:
[1] = test system: Trichophyton violaceum; test: agar dilution test, minimal inhibitory concentration; assay type: cell-based; conditions: Stamm No 10/M, Agardilutionstest, read-out: MHK-Werte
Excerpt: (§1) Die Wirkung gegenüber Mikroorganismen kann nach Methoden, wie sie beispielsweise in P. Klein, Bakteriologische Grundlagen der chemotherapeutischen Laboratoriumspraxis, Springer-Verlag Berlin, 1957, beschrieben sind, aufgezeigt werden.
(§2) Beispielsweise wurde geprüft, welche minimalen Hemmkonzentrationen (MHK-Werte) im Agardilutionstest gegen pathogene Pilze erreicht werden können.
(§3) In der folgenden Tabelle 1 sind die Ergebnisse zusammengefaßt: […]

[2] = test system: Trichophyton mentagrophytes; test: as above; assay type: cell-based; conditions: Agardilutionstest, read-out: MHK-Werte
Excerpt: as §1, §2, §3

[3] = test system: Microsporum canis; test: as above; assay type: cell-based; conditions: Agardilutionstest, read-out: MHK-Werte
Excerpt: as §1, §2, §3

[4] = test system: Microsporum ferrugineum; test: as above; assay type: cell-based; conditions: Stamm No 5/M, Agardilutionstest, read-out: MHK-Werte
Excerpt: as §1, §2, §3

[5] = test system: Trichophyton schoenleinii; test: as above; assay type: cell-based; conditions: Stamm No 9/M, Agardilutionstest, read-out: MHK-Werte
Excerpt: as §1, §2, §3

[6] = test system: Trichophyton rubrum; test: as above; assay type: cell-based; conditions: Stamm No 158/M, Agardilutionstest, read-out: MHK-Werte
Excerpt: as §1, §2, §3

[7] = test system: Epidermophyton floccosum; test: as above; assay type: cell-based; conditions: Stamm No 157/M, Agardilutionstest, read-out: MHK-Werte
Excerpt: as §1, §2, §3

[8] = test system: Microsporum gypseum; test: as above; assay type: cell-based; conditions: Nannizzia gypsea; Stamm No 156/M; Agardilutionstest; read-out: MHK-Werte
Excerpt: as §1, §2, §3

[9] = acute oral toxicity (LD50) in the mouse; conditions: in vivo, Maus per os
Excerpt: Aus diesen LD50-Werten ergibt sich für die topische und systemische Anwendung nach oraler Gabe eine genügend therapeutische Breite.

[10] = test system: humanpathogenen Pilzen und Hefen aus dem Verwandtschaftskreis der Dermatophyten; test: inhibitory effect on microorganisms, trans compound compared with cis compound; assay type: cell-based; conditions: compared with the respective cis compound; Hemmeffekte gegenüber Mikroorganismen
Excerpt: Aufgrund der überraschenden Feststellung, daß die reinen trans-Verbindungen gegenüber humanpathogenen Pilzen und Hefen aus dem Verwandtschaftskreis der Dermatophyten um das 10-fache und noch darüber hinaus stärker wirksam sind als die cis-Verbindungen, ist es eine Aufgabe der Erfindung, Verfahren zur Herstellung der reinen trans-Verbindungen (1) bis (3) zu entwickeln.
überraschenderweise sind die reinen trans-Verbindungen fast ausschließlich Träger der guten antimykotischen Wirkung. Verglichen mit der jeweiligen cis-Verbindung und bezogen auf die Hemmeffekte gegenüber Mikroorganismen, sind die trans-Verbindungen (1), (2) und (3) 10-fach und noch darüber hinaus stärker wirksam. Das bedeutet beispielsweise bei etwa gleichen Toxizitätswerten eine wesentliche Verbesserung der therapeutischen Breite.

| SMILES | MIC [1] [µg/mL] | MIC ([2]; Stamm No 19/M) [µg/mL] | MIC ([2]; Stamm No 159/M) [µg/mL] | MIC ([2]; Stamm No 170/M) [µg/mL] | MIC ([2]; Stamm No 171/M) [µg/mL] | MIC ([2]; Stamm No 173/M) [µg/mL] | MIC ([3]; Stamm No 168/M) [µg/mL] | MIC [4] [µg/mL] | MIC [5] [µg/mL] | MIC ([2]; Stamm No 21/M) [µg/mL] | MIC ([2]; Stamm No 160/M) [µg/mL] | MIC ([2]; Stamm No 172/M) [µg/mL] | MIC ([2]; Stamm No 174/M) [µg/mL] | MIC ([3]; Stamm No 155/M) [µg/mL] | MIC ([3]; Stamm No 167/M) [µg/mL] | MIC ([3]; Stamm No 169/M) [µg/mL] | MIC [6] [µg/mL] | MIC [7] [µg/mL] | MIC [8] [µg/mL] | LD50 [9] [mg/kg] | other results |
| --- | --- | --- | --- | --- | --- | --- | --- | --- | --- | --- | --- | --- | --- | --- | --- | --- | --- | --- | --- | --- | --- |
| CC1CC(C)CN(CC(C)C[C@H]2CC[C@@H](C(C)(C)C)CC2)C1 (relative stereo) [(2) cis, cis- und trans-3-(4'-tert.-Butyl-cyclohexyl-1')-2--methyl-1-(3',5'-dimethyl-1'-piperidino)-propan] | 0.0625 (≈ 0.203 µM) | 0.25 (≈ 0.813 µM) | 0.0156 (≈ 0.0507 µM) | 0.0625 (≈ 0.203 µM) | 0.0625 (≈ 0.203 µM) | 0.25 (≈ 0.813 µM) | 0.0312 (≈ 0.101 µM) | 0.0625 (≈ 0.203 µM) | 0.0625 (≈ 0.203 µM) |  |  |  |  |  |  |  |  |  |  |  |  |
| CC(CN1C[C@@H](C)O[C@@H](C)C1)C[C@H]1CC[C@H](C(C)(C)C)CC1 (relative stereo) [(3) trans, trans-3-(4'-tert.-Butyl-cyclohexyl-1')-2-methyl-1--(2',6'-cis-dimethylmorpholino)-propan] | 0.0156 (≈ 0.0504 µM) | 0.0312 (≈ 0.101 µM) | < 0.0078 | 0.0156 (≈ 0.0504 µM) | 0.0156 (≈ 0.0504 µM) | 0.0625 (≈ 0.202 µM) | 0.0156 (≈ 0.0504 µM) | < 0.0078 | 0.0156 (≈ 0.0504 µM) | 0.0625 (≈ 0.202 µM) | 0.0625 (≈ 0.202 µM) | 0.0625 (≈ 0.202 µM) | 0.0156 (≈ 0.0504 µM) | 0.0312 (≈ 0.101 µM) | 0.0312 (≈ 0.101 µM) | 0.0312 (≈ 0.101 µM) | 0.0625 (≈ 0.202 µM) | 0.0312 (≈ 0.101 µM) | 0.0156 (≈ 0.0504 µM) | 2250 | stärker wirksam als die cis-Verbindung [10]: ≥ 10 fach |
| CC(CN1C[C@@H](C)O[C@@H](C)C1)C[C@H]1CC[C@@H](C(C)(C)C)CC1 (relative stereo) [(3) cis, cis- und trans-3-(4'-tert.-Butyl-cyclohexyl-l')-2--methyl-l-(2',6'-cis-dimethyl-morpholyl)-propan] |  | 1 (≈ 3.23 µM) | 0.0625 (≈ 0.202 µM) | 0.0625 (≈ 0.202 µM) | 0.0625 (≈ 0.202 µM) | 0.25 (≈ 0.808 µM) | 0.0625 (≈ 0.202 µM) | 0.0312 (≈ 0.101 µM) |  | 1 (≈ 3.23 µM) |  | 0.25 (≈ 0.808 µM) |  | 0.5 (≈ 1.62 µM) | 0.0625 (≈ 0.202 µM) |  | > 1 | 0.25 (≈ 0.808 µM) |  |  |  |
| CC1CC(C)CN(CC(C)C[C@H]2CC[C@H](C(C)(C)C)CC2)C1 (relative stereo) [(2) trans, trans-3-(4'-tert.-Butyl-cyclohexyl-1')-2-methyl-1-(3',5'--dimethyl-l'-piperidino)-propan] | < 0.0078 | 0.0625 (≈ 0.203 µM) | < 0.0078 | < 0.0078 | < 0.0078 | 0.0312 (≈ 0.101 µM) | < 0.0078 | < 0.0078 | 0.0156 (≈ 0.0507 µM) | 0.0312 (≈ 0.101 µM) | 0.0312 (≈ 0.101 µM) | 0.0312 (≈ 0.101 µM) | 0.0156 (≈ 0.0507 µM) | 0.0312 (≈ 0.101 µM) | 0.0156 (≈ 0.0507 µM) | 0.0312 (≈ 0.101 µM) | 0.0312 (≈ 0.101 µM) | 0.0156 (≈ 0.0507 µM) | 0.0312 (≈ 0.101 µM) | 335 | stärker wirksam als die cis-Verbindung [10]: ≥ 10 fach |
| CC1CCCN(CC(C)C[C@H]2CC[C@@H](C(C)(C)C)CC2)C1 (relative stereo) [(1) cis, cis- und trans-3-(4-tert.-Butyl-cyclohexyl-1)-2-methyl-1-(3'-methyl-1-piperidino)-propan] | 0.0625 (≈ 0.213 µM) | 0.5 (≈ 1.7 µM) | 0.0312 (≈ 0.106 µM) |  |  | 0.25 (≈ 0.852 µM) | 0.0625 (≈ 0.213 µM) | 0.0312 (≈ 0.106 µM) |  | 0.25 (≈ 0.852 µM) | 0.25 (≈ 0.852 µM) | 0.5 (≈ 1.7 µM) |  |  | 0.25 (≈ 0.852 µM) | 0.5 (≈ 1.7 µM) | 0.25 (≈ 0.852 µM) | 0.25 (≈ 0.852 µM) | 0.25 (≈ 0.852 µM) |  |  |
| CC1CCCN(CC(C)C[C@H]2CC[C@H](C(C)(C)C)CC2)C1 (relative stereo) [(1) trans, trans-3-(4'-tert.-Butyl-cyclohexyl-1')-2-methyl-1-(3'--methyl-1'-piperidino)-propan] | 0.0156 (≈ 0.0531 µM) | 0.0312 (≈ 0.106 µM) | 0.0078 (≈ 0.0266 µM) | 0.0156 (≈ 0.0531 µM) | 0.0156 (≈ 0.0531 µM) | 0.0312 (≈ 0.106 µM) | 0.0156 (≈ 0.0531 µM) | 0.0078 (≈ 0.0266 µM) | 0.0625 (≈ 0.213 µM) | 0.0312 (≈ 0.106 µM) | 0.0312 (≈ 0.106 µM) | 0.0625 (≈ 0.213 µM) | 0.0312 (≈ 0.106 µM) | 0.0156 (≈ 0.0531 µM) | 0.0312 (≈ 0.106 µM) | 0.0625 (≈ 0.213 µM) | 0.0312 (≈ 0.106 µM) | 0.0312 (≈ 0.106 µM) | 0.0156 (≈ 0.0531 µM) | 305 | stärker wirksam als die cis-Verbindung [10]: ≥ 10 fach |
| Clc1ccc(COC(Cn2ccnc2)c2ccc(Cl)cc2Cl)c(Cl)c1 (stereo not drawn) [Miconazol, reference compound] | 0.64 (≈ 1.54 µM) | > 1.28 | 0.32 (≈ 0.769 µM) | 1.28 (≈ 3.08 µM) | 0.64 (≈ 1.54 µM) | 0.32 (≈ 0.769 µM) | > 1.28 | > 1.28 | > 1.28 | > 1.28 | > 1.28 | 0.32 (≈ 0.769 µM) | > 1.28 | > 1.28 | > 1.28 | > 1.28 | > 1.28 | > 1.28 | > 1.28 |  |  |
| Clc1ccccc1C(c1ccccc1)(c1ccccc1)n1ccnc1 [Clotrimazol, reference compound] | 0.16 (≈ 0.464 µM) | 1.28 (≈ 3.71 µM) | 0.32 (≈ 0.928 µM) | 0.32 (≈ 0.928 µM) | 0.32 (≈ 0.928 µM) | 0.64 (≈ 1.86 µM) | 0.16 (≈ 0.464 µM) | 0.16 (≈ 0.464 µM) | 0.64 (≈ 1.86 µM) | 1.28 (≈ 3.71 µM) | 0.64 (≈ 1.86 µM) | 0.64 (≈ 1.86 µM) | 1.28 (≈ 3.71 µM) | 0.32 (≈ 0.928 µM) | 0.64 (≈ 1.86 µM) | 0.64 (≈ 1.86 µM) | 1.28 (≈ 3.71 µM) | 0.32 (≈ 0.928 µM) | 0.64 (≈ 1.86 µM) |  |  |
| Cc1cccc(N(C)C(=S)Oc2ccc3ccccc3c2)c1 [Tolnaftat, reference compound] | < 0.01 | 0.04 (≈ 0.13 µM) | 0.08 (≈ 0.26 µM) | 0.08 (≈ 0.26 µM) | 0.16 (≈ 0.52 µM) | 0.32 (≈ 1.04 µM) | 0.04 (≈ 0.13 µM) | 0.16 (≈ 0.52 µM) | 0.04 (≈ 0.13 µM) | 0.32 (≈ 1.04 µM) | 0.32 (≈ 1.04 µM) | 0.64 (≈ 2.08 µM) | 0.08 (≈ 0.26 µM) | 0.32 (≈ 1.04 µM) | 0.16 (≈ 0.52 µM) | 0.32 (≈ 1.04 µM) | 0.08 (≈ 0.26 µM) | 0.32 (≈ 1.04 µM) | 0.16 (≈ 0.52 µM) |  |  |
